# Data reported in patent EP0643699B1, “6-(2-HYDROXYETHYLAMINOALKYL)-5,11-DIOXO-5,6-DIHYDRO-11H- INDENO[1,2-C]ISOQUINOLINES AND THEIR USE AS ANTINEOPLASTIC AGENTS” (priority 1991, dated 1993).
# Marks after values point to notes of the source that are not given here.
# Key:
# [1] = system: Yoshida reticulosarcoma; assay: Survival of rats bearing Yoshida ascites reticulosarcoma; format: in vivo, Wistar rats; conditions: T/C
# From the text: (§1) The antineoplastic activity of the compounds of the invention has been investigated testing the compounds of the chemical group "in vivo" against experimental rodent tumors such as the solid form of Ehrlich tumour (STE, originally mammary adenocarcinoma), tumor HK (also transplantable originally mammary adenocarcinoma), Krebs' ascites tumour (Kr2), S37 ascites sarcoma, Nemeth-Keller lymphoma (NK), all maintained in mice H, Gardner lymphosarcoma (LsG, maintained in mice C3H), P388 and/or L1210 leukemia (maintained in DBA2 mice), B16 metastasizing melanocarcinoma (maintained in C57B1/6 mice) and Yoshida ascites reticulosarcoma (Y, maintained in Wistar rats) in experiments according to Jelinek, V. [Neoplasma 12, 469 (1965); ibid 7, 146 (1960)] and in "in vitro" experiments using radioactive precursors of nucleic acids and proteins according to Miko, M. et al. [Cancer Res 39, 4242 (1979); Neoplasma 26, 449 (1979); ibid 16, 161 (1969)] with minor modifications [Mattern, J.: Studies on the Drug Sensitivity of Short Term Cultured Tumour Cell Suspensions. In "Human Tumours in Short Term Culture" (Dendy, P.P. ed.), p.301, Academic Press 1976]. The Cox's proportional-hazards model was used for survival evaluation and optimal dose calculation according to Carter, V.H. et al. [cf Cancer Res. 42, 2963 (1982)].
# Seventy infantile Vistar female rats weighing 63.0-64.8 g were divided into seven groups: one control group and six experimental groups of 10 animal each. A lethal dose of the Yoshida reticulosarcoma ascitic fluid was implanted intraperitoneally to all the animals. The animals of test groups were treated using the compound suspended in water. The suspension contained the substance in such a concentration that dose 0.6, 0.4 and/or 0.2 ml of the suspension was equal to dose 200, 100 and/or 50 mg/kg p.o., or 40, 20 and/or 10 mg/kg s.c., respectively. Doses of the drug were administered to the experimental animals once a day, for five consecutive days, starting on the first day after tumour transplantation. In all animals survival was followed. It was observed that the treated animals survived longer than untreated control animals. […] The results of the experiment are summarized in the following table and shown in the graph on the Fig. 1.
# [2] = system: L1210 leukemia cells; assay: Cytotoxicity: incorporation of [14C]amino-acid mixture into trichloroacetic acid-insoluble fraction of cells; format: cell-based, DBA2 mice; conditions: Mus musculus; Tumor L1210; Precursor [U-14C]Amino-acid mixture
# From the text: as §1, with “(1982)]. […]” for “(1982)].”
# [3] = system: Ehrlich tumour; assay: Antitumour activity against solid form of Ehrlich tumour in mice (tumour weight, survival); format: in vivo, mice H; conditions: the fifth day after tumour transplantation; for Tumour weight (T/C, %): weighed on the fourteenth day
# From the text: as §1
# Sixty female mice H weighing approximately 20 g were divided into three groups: one control group and two experimental groups of 20 animal each. A lethal dose of the 40 Ehrlich tumour homogenate was implanted subcutaneously to all the animals. The animals of test groups were treated using the compounds suspended in water. […] On the fourteenth day after the tumour transplantation, half of the animals in each group were killed by ether anaesthesia, tumours were removed and weighed. The remaining animals were left to monitor the time of death and survival time was followed. […] It was also observed that the treated animals survived longer than untreated control animals.
compound,measurement,setting,value
"O=C1c2ccccc2-c2c1c1ccccc1c(=O)n2CCNCCO [I (X=2), 6-[2-(2-hydroxyethyl)aminoethyl]-5,11-dioxo-5,6-dihydro-11H-indeno[1,2-c]isoquinoline]",Period of survival (% of control),[1]; p.o. 50 mg/kg once a day for five consecutive days,132%
same,Period of survival (% of control),[1]; p.o. 100 mg/kg once a day for five consecutive days,"230^b,^e) %"
same,Period of survival (% of control),[1]; p.o. 200 mg/kg once a day for five consecutive days,"219^b,^d) %"
same,Period of survival (% of control),[1]; s.c. 10 mg/kg once a day for five consecutive days,203 ^b) %
same,Period of survival (% of control),[1]; s.c. 20 mg/kg once a day for five consecutive days,139^a) %
same,Period of survival (% of control),[1]; s.c. 40 mg/kg once a day for five consecutive days,86%
same,IC50,[2],78 µM
same,"Survival time (T/C, %)",[3]; 200 mg/kg p.o. once,111%
same,"Tumour weight (T/C, %)",[3]; 200 mg/kg p.o. once,79^a) %
same,"Survival time (T/C, %)",[3]; 400 mg/kg p.o. once,152^a) %
same,"Tumour weight (T/C, %)",[3]; 400 mg/kg p.o. once,31^b) %
